Reference: ChEMBL document CHEMBL3217615, “Novel 3,5-bis(arylidiene)-4-piperidone based monocarbonyl analogs of curcumin: anticancer activity evaluation and mode of action study” (2014)

Assays:
Format in all cases: functional
[1] = Growth inhibition of human OVCAR8 cells assessed as cell growth at 10^-5 M after 48 hrs by sulforhodamine B assay; settings: OVCAR-8, 48 h, read-out: Activity
[2] = Growth inhibition of human OVCAR5 cells assessed as cell growth at 10^-5 M after 48 hrs by sulforhodamine B assay; settings: OVCAR-5, 48 h, read-out: Activity
[3] = tested on: SK-MEL-5; experiment: Growth inhibition of human SK-MEL-5 cells assessed as cell growth at 10^-5 M after 48 hrs by sulforhodamine B assay; settings: SK-MEL-5, 48 h, read-out: Activity
[4] = tested on: MDA-MB-435; experiment: Growth inhibition of human MDA-MB-435 cells assessed as cell growth at 10^-5 M after 48 hrs by sulforhodamine B assay; settings: MDA-MB-435, 48 h, read-out: Activity
[5] = tested on: SNB-75; experiment: Growth inhibition of human SNB75 cells assessed as cell growth at 10^-5 M after 48 hrs by sulforhodamine B assay; settings: SNB-75, 48 h, read-out: Activity
[6] = tested on: SW-620; experiment: Growth inhibition of human SW620 cells assessed as cell growth at 10^-5 M after 48 hrs by sulforhodamine B assay; settings: SW-620, 48 h, read-out: Activity
[7] = tested on: HT-29; experiment: Growth inhibition of human HT-29 cells assessed as cell growth at 10^-5 M after 48 hrs by sulforhodamine B assay; settings: HT-29, 48 h, read-out: Activity
[8] = tested on: HL-60(TB); experiment: Growth inhibition of human HL-60(TB) cells assessed as cell growth at 10^-5 M after 48 hrs by sulforhodamine B assay; settings: HL-60, 48 h, read-out: Activity
[9] = tested on: K562; experiment: Growth inhibition of human K562 cells assessed as cell growth at 10^-5 M after 48 hrs by sulforhodamine B assay; settings: K562, 48 h, read-out: Activity
[10] = Growth inhibition of human BT549 cells assessed as cell growth at 10^-5 M after 48 hrs by sulforhodamine B assay; settings: BT-549, 48 h, read-out: Activity
[11] = tested on: MCF7; experiment: Growth inhibition of human MCF7 cells assessed as cell growth at 10^-5 M after 48 hrs by sulforhodamine B assay; settings: MCF7, 48 h, read-out: Activity
[12] = tested on: DU-145; experiment: Growth inhibition of human DU145 cells assessed as cell growth at 10^-5 M after 48 hrs by sulforhodamine B assay; settings: DU-145, 48 h, read-out: Activity
[13] = tested on: PC-3; experiment: Growth inhibition of human PC3 cells assessed as cell growth at 10^-5 M after 48 hrs by sulforhodamine B assay; settings: PC-3, 48 h, read-out: Activity
[14] = Growth inhibition of human UO31 cells assessed as cell growth at 10^-5 M after 48 hrs by sulforhodamine B assay; settings: UO-31, 48 h, read-out: Activity
[15] = tested on: TK-10; experiment: Growth inhibition of human TK10 cells assessed as cell growth at 10^-5 M after 48 hrs by sulforhodamine B assay; settings: TK-10, 48 h, read-out: Activity
[16] = tested on: SN12C; experiment: Growth inhibition of human SN12C cells assessed as cell growth at 10^-5 M after 48 hrs by sulforhodamine B assay; settings: read-out: Activity
[17] = tested on: CAKI-1; experiment: Growth inhibition of human CAKI-1 cells assessed as cell growth at 10^-5 M after 48 hrs by sulforhodamine B assay; settings: CAKI-1, 48 h, read-out: Activity
[18] = tested on: A498; experiment: Growth inhibition of human A498 cells assessed as cell growth at 10^-5 M after 48 hrs by sulforhodamine B assay; settings: A498, 48 h, read-out: Activity
[19] = tested on: 786-0; experiment: Growth inhibition of human 786-0 cells assessed as cell growth at 10^-5 M after 48 hrs by sulforhodamine B assay; settings: 786-0, 48 h, read-out: Activity

With `O=C1/C(=C/c2c(Cl)cccc2Cl)CN(S(=O)(=O)c2ccccc2)C/C1=C\c1c(Cl)cccc1Cl` the growth at 10 µM [1] was 77.3%, the growth at 10 µM [2] was 103% and the growth at 10 µM [3] was 85.3%. The growth at 10 µM [4] was 72.7%, the growth at 10 µM [5] was 66.2% and the growth at 10 µM [6] was 89.4%. It also gave a growth at 10 µM [7] of 71.5%, a growth at 10 µM [8] of 81% and a growth at 10 µM [9] of 77.8%. The growth at 10 µM [10] was 89.3%, the growth at 10 µM [11] was 48.5% and the growth at 10 µM [12] was 85.8%. For the same compound, the growth at 10 µM [13] was 57.5%, the growth at 10 µM [14] was 73.7% and the growth at 10 µM [15] was 101%. It also gave a growth at 10 µM [16] of 86.3%, a growth at 10 µM [17] of 136% and a growth at 10 µM [18] of 91.6%. For the same compound, the growth at 10 µM [19] was 93%.
For `Cc1ccc(S(=O)(=O)N2C/C(=C\c3c(Cl)cccc3Cl)C(=O)/C(=C/c3c(Cl)cccc3Cl)C2)cc1`, the growth at 10 µM [1] was 79.6%, the growth at 10 µM [2] was 103% and the growth at 10 µM [3] was 85%. The growth at 10 µM [4] was 93.5%, the growth at 10 µM [5] was 65.2% and the growth at 10 µM [6] was 101%. It also gave a growth at 10 µM [7] of 83.7%, a growth at 10 µM [8] of 94.5% and a growth at 10 µM [9] of 81.6%. For the same compound, the growth at 10 µM [10] was 101%, the growth at 10 µM [11] was 64.5% and the growth at 10 µM [12] was 96.8%. The growth at 10 µM [13] was 67.3%, the growth at 10 µM [14] was 72.5% and the growth at 10 µM [15] was 115%. It also gave a growth at 10 µM [16] of 85.6%, a growth at 10 µM [17] of 61.6% and a growth at 10 µM [18] of 109%. For the same compound, the growth at 10 µM [19] was 93.3%.
